Source: publication PMC3348135, “Identification of New Agonists and Antagonists of the Insect Odorant Receptor Co-Receptor Subunit” (PLoS ONE, 2012)
Read-outs that look alike come from different tables or passages of the source.

How the values were obtained:
Cqui\Orco + Cqui\Or10 [1] = biological target: T1, Cqui\Orco + Cqui\Or10 (Culex quinquefasciatus, UniProt D5LMR7+Q309I4); parameters: method as in PMID 20623327; conditions: read-out: EC50 for activation of Cqui\Orco+Cqui\Or10 by 3-methylindole; cited from earlier work
T1 sequence (D5LMR7 entry or part of it): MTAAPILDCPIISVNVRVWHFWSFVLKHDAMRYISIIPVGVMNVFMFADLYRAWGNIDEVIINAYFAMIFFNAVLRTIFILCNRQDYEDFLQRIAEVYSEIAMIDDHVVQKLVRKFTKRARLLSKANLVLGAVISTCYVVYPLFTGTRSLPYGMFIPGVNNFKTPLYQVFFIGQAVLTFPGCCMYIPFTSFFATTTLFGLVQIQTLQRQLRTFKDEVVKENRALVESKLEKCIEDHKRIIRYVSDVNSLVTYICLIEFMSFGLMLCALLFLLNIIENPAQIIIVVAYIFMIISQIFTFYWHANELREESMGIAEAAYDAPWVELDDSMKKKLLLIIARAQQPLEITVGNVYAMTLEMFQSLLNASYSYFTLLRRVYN
T1 sequence (Q309I4 entry or part of it): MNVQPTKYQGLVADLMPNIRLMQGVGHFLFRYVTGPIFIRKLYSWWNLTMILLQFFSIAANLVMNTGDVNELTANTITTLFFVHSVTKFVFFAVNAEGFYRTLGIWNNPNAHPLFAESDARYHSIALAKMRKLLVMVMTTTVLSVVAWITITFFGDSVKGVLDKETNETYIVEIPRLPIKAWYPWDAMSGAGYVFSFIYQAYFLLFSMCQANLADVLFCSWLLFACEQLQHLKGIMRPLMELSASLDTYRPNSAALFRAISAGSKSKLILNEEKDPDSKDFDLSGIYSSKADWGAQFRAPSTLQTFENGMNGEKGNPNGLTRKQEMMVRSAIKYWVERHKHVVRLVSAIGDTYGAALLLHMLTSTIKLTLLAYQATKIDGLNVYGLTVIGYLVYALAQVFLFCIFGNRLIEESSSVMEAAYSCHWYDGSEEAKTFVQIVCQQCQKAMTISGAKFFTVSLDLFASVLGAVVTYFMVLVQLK

Cqui\Orco + Cqui\Or10 [2] = biological target: T1, Cqui\Orco + Cqui\Or10; assay: Activation of Cqui\Orco + Cqui\Or10 in Xenopus oocytes, two-electrode voltage clamp; assay type: cell-based; conditions: for Emax at 100 µM: 100 µM compound, mean ± SEM, n=3-8, read-out: Response amplitude as percentage of response to 100 µM OLC3, Cqui\Orco + Cqui\Or10
Method: (§1) Oocytes were surgically removed from mature Xenopus laevis frogs. Follicle cells were removed by treatment with Collagenase B (Boehringer Mannhem) for 2 hours at room temperature. Capped cRNA encoding each DmOR subunit was generated using mMessage mMachine kits (Ambion). For heteromeric ORs, 25 ng of cRNA encoding each OR subunit was injected into Stage V-VI Xenopus oocytes. For expression of Orco alone, 50 ng of cRNA was injected. Oocytes were incubated at 18°C in Barth’s saline (in mM: 88 NaCl, 1 KCl, 2.4 NaHCO3, 0.3 CaNO3, 0.41 CaCl2, 0.82 MgSO4, 15 HEPES, pH 7.6, and 150 µg/ml ceftazidime) for 2–5 days prior to electrophysiological recording.
(§2) Odorant and Orco ligand induced currents were recorded under two-electrode voltage clamp in Xenopus laevis oocytes expressing ORs, using an automated parallel electrophysiology system (OpusExpress 6000A; Molecular Devices). Oocytes were perfused with ND96 (in mM: 96 NaCl, 2 KCl, 1 CaCl2, 1 MgCl2, 5 HEPES, pH 7.5). Odorant stock solutions (0.5 or 1 M) and Orco ligand stock solutions (100 mM) were prepared in DMSO and diluted in ND96. Unless otherwise noted, applications were for 60 sec at a flow rate of 1.0 ml/min, with extensive washing in ND96 (9 or 20 min at 4.6 ml/min) between applications. Micropipettes were filled with 3 M KCl and had resistances of 0.2−2.0 MΩ. The holding potential was −70 mV. Current responses, filtered (4-pole, Bessel, low pass) at 20 Hz (−3 db) and sampled at 100 Hz, were captured and stored using OpusXpress 1.1 software (Molecular Devices).
(§3) Initial analysis of electrophysiological data was done using Clampfit 9.1 software (Molecular Devices). Curve fitting and statistical analyses were done using Prism 5 (Graphpad). Concentration-response data were fit to the equation: I = Imax/(1+(EC50/X)^n) where I represents the current response at a given concentration of odorant, X; Imax is the maximal response; EC50 is the concentration of agonist yielding a half maximal response; n is the apparent Hill coefficient. Concentration-inhibition data were fit to the equation: I = Imax/(1+(X/IC50)^n) where I represents the current response at a given concentration of inhibitor, X; Imax is the maximal response in the absence of inhibitor; IC50 is the concentration of inhibitor present that still allows a half maximal response from odorant; n is the apparent Hill coefficient. Statistical significance was assessed using a two-tailed unpaired t test, an F test, or a one-way analysis of variance followed by the Bonferroni’s post-test, as appropriate.

Onub\Orco + Onub\Or1 = assay: Agonist activation of Onub\Orco + Onub\Or1 in Xenopus oocytes, two-electrode voltage clamp; assay type: cell-based, Ostrinia nubilalis; conditions: 100 µM compound; mean ± SEM, n=3-8
[3] = system: sham (water) injected oocytes; assay: Response of sham (water) injected oocytes to Orco ligands; assay type: cell-based, Xenopus laevis; conditions: 100 µM, 60 sec application
Method: as §1, §2

Dmel\Orco + Dmel\Or35a = biological target: T2, Dmel\Orco + Dmel\Or35a (Drosophila melanogaster, UniProt Q9VNB5); assay: Agonist activation of Dmel\Orco + Dmel\Or35a in Xenopus oocytes, two-electrode voltage clamp; assay type: cell-based; conditions: for EC50: concentration-response, responses normalized to 30 µM OLC3; for Emax at 100 µM: read-out: Response amplitude as percentage of response to 100 µM OLC3, Dmel\Orco + Dmel\Or35a
T2 construct: expressed in transfected cells; host or cells: Xenopus laevis oocytes (cRNA injection, pGEMHE)
T2 sequence (Q9VNB5 1-486): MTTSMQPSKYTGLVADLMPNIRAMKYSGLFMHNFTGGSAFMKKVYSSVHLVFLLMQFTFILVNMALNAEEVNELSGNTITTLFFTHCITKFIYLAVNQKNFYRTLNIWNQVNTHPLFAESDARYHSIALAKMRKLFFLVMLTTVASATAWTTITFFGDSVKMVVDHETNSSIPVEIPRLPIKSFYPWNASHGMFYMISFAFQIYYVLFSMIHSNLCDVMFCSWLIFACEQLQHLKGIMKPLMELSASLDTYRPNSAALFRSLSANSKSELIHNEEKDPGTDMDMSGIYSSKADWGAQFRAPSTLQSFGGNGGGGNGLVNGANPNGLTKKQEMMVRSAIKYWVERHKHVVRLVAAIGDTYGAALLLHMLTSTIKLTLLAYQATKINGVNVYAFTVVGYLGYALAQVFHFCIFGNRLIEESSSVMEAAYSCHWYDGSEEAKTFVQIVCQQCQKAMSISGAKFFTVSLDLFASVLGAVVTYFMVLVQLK
T2 sequence (Q9V3Q2 1-409 partner): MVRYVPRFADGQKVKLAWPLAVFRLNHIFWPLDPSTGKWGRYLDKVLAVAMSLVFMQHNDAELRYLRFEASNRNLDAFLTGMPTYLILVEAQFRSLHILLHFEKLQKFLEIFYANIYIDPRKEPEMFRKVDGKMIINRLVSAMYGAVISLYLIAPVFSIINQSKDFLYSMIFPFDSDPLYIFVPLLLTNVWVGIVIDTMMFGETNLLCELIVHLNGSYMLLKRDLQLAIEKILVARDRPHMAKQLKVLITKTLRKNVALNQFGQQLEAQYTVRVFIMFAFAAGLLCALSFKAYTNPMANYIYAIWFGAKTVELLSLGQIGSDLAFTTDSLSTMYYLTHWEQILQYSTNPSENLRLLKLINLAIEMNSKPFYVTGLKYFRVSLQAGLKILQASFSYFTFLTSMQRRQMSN
Method: as §1, §2, §3

Cqui\Orco = assay: Agonist activation of homomeric Cqui\Orco in Xenopus oocytes, two-electrode voltage clamp; assay type: cell-based, Culex quinquefasciatus; conditions: 100 µM compound; mean ± SEM, n=3-8
Dmel\Orco = biological target: T3, Dmel\Orco (Drosophila melanogaster, UniProt Q9VNB5); assay: Agonist activation of homomeric Dmel\Orco in Xenopus oocytes, two-electrode voltage clamp; assay type: cell-based; conditions: for EC50: concentration-response, responses normalized to 30 µM OLC3, saturation not obtained for OLC3 and VUAA1; for Emax at 100 µM: read-out: Response amplitude as percentage of response to 100 µM OLC3, Dmel\Orco
T3 construct: expressed in transfected cells; host or cells: Xenopus laevis oocytes (cRNA injection, pGEMHE)
T3 sequence (Q9VNB5 1-486): T2 sequence (Q9VNB5 1-486)
Method: as §1, §2, §3

[4] = Solubility in recording solution (observation); assay type: physicochemical; conditions: aqueous recording solution, higher concentrations (OLC2: above 100 µM)
Method: as §2

Row | EC50 (Cqui\Orco + Cqui\Or10 [2]; absence of OLC15, read-out: EC50 for 3-MI activation of Cqui\Orco + Cqui\Or10) | EC50 (Cqui\Orco + Cqui\Or10 [2]; in presence of 3 µM OLC15, read-out: EC50 for 3-MI activation of Cqui\Orco + Cqui\Or10 in presence of OLC15) | SMILES | EC50 (Cqui\Orco + Cqui\Or10 [1]) | Response amplitude as percentage of response to 100 µM OLC3, Onub\Orco + Onub\Or1 (Onub\Orco + Onub\Or1) | Response of sham (water) injected oocytes [3] | EC50 (Dmel\Orco + Dmel\Or35a) | Emax at 100 µM (Dmel\Orco + Dmel\Or35a) | Response amplitude as percentage of response to 100 µM OLC3, Cqui\Orco (Cqui\Orco) | Emax at 100 µM (Cqui\Orco + Cqui\Or10 [2]) | EC50 (Dmel\Orco) | Emax at 100 µM (Dmel\Orco) | Solubility [4]
1 | 313 ± 103 nM | 275 ± 41 nM | Cc1c[nH]c2ccccc12 [3-methylindole, reference compound] | 90 ± 17 nM |  |  |  |  |  |  |  |  | 
2 |  |  | CCc1ccc(NC(=O)CSc2nnc(-c3ccncc3)n2CC)cc1 [OLC3] |  | 100% | No responses | 56 ± 8 µM | 100% | 100% | 100% | 346 ± 126 µM | 100% | not fully soluble at higher concentrations
3 |  |  | CCn1c(SCC(=O)Nc2ccc(C(C)C)cc2)nnc1-c1ccncc1 [OLC12] |  | 306 ± 33% | No responses | 18 ± 3 µM | 300 ± 41% | 636 ± 78% | 289 ± 41% | 35 ± 3 µM | 318 ± 12% | 
4 |  |  | CCc1ccc(NC(=O)CSc2nnc(-c3cccnc3)n2CC)cc1 [VUAA1, reference compound] |  | 60 ± 6% | No responses | 57 ± 13 µM | 50 ± 9% | 18 ± 8% | 75 ± 3% | 190 ± 30 µM | 24 ± 7% | not fully soluble at higher concentrations
